The IC50 is the concentration needed to halve the response being measured. The EC50 is the concentration giving half of the maximal effect. One may read the pEC50 as −log10 of the EC50, conventionally taken in molar units.

Experiment [1] has as its target hCB1 (Homo sapiens, UniProt P21554). In words: hCB1 radioligand binding assay ([3H]-CP 55,940 displacement). Conditions: hCB1 IC50 (CP displ, nM, HEK), HEK membranes. The source says: (§1) cDNA expression clones for human CB 1 (hCB1, Genbank Accession No. AY225225) and human CB2 (hCB2, Genbank Accession No. AY242132) expressed in vector pcDNA3.1+ were purchased from UMR cDNA Resource Center, Rolla, Mo. (Clone ID CNR01L000 for hCB1; CNR0200000 for hCB2).
Stable, HEK-293-derived cell lines that recombinantly express hCB1 or hCB2 were established. In brief, the clone hCB1 (CNR1L) or hCB2 (CNR2) was transfected into human embryonic kidney cells (HEK-293) using Lipofectamine 2000 (Gibco, Cat#11668-019) according to the manufacturer's protocol. Transfected clones were isolated by single colony purification and clones were screened for receptor expression using a whole cell, ^3H—CP 55,940 radioligand binding assay. HEK-293 stable cells were maintained in Dulbecco's modified Eagles medium (DMEM) containing 10% fetal bovine serum, 2 mM L-glutamine and 0.5 mg/mL G-418.
(§2) Membranes were isolated from transfected cells as follows. Monolayers of cultured cells were washed twice with phosphate-buffered saline (PBS). Cells were scraped into 20 mM HEPES, pH 7.4, 10 mM EDTA containing complete cocktail protease inhibitors (Roche, Catalog #11 697 498 001), and were homogenized by an electric-powered mechanical probe homogenizer (Omni GLH; probe G7-195S) for 40 seconds at 7000 rpm. Homogenates were centrifuged 10 minutes at 1000×g at 4° C. The supernatant was collected and was centrifuged for 1 hour at 40,000×g. The supernatant was then decanted and the resulting pellet was re-suspended in 20 mM HEPES, pH 7.4, 5 mM MgCl2, 1 mM EDTA, 10% sucrose with complete cocktail protease inhibitors. Protein concentration of membrane suspensions were measured by Bradford Protein Assay using bovine serum albumin as the standard (BioRad catalog #500-0006). Protein concentrations of membrane suspensions were adjusted with the final buffer in the range of 5 to 10 mg/mL and were stored at −80° C. until further use.
Radioligand binding assays were performed by incubating membranes (2-10 μg protein) prepared from HEK-293 cells expressing recombinant human cannabinoid receptors, CB 1 or CB2, at room temperature with 0.5 nM cannabinoid receptor agonist, [^3H]-CP 55,940 (Perkin Elmer, catalog #NET 1051) in 0.2 mL of binding buffer (50 mM Tris-HCl, pH 7.5, 5 mM MgCl2, 2.5 mM EDTA) and 0.1% fatty acid free bovine serum albumin (Sigma Cat. #A0821) for 90 minutes. A rapid filtration technique using Millipore FB filter plates (Catalog #MADVNOB) and filtration apparatus (Millipore system Catalog MAVM0960R) with vacuum aspiration was used to harvest and rinse labeled membranes (8 times with 0.2 mL of chilled binding buffer). The radioactivity bound to the filters was counted with 0.05 mL of liquid scintillant (UltraGold MV, PerkinElmer catalog #6013159) in a scintillation counter (Perkin Elmer Microbeta instrument). Nonspecific binding was determined in the presence of unlabeled 1 μM CP 55,940 (Sigma Aldrich, catalog #C1112). Binding data were analyzed using GraphPad Prism (GraphPad Software, Inc. San Diego, Calif.).

For experiment [2], the target named is T1, hCB2 (Homo sapiens, UniProt P34972). As to the kind of experiment: hCB2 cAMP agonist assay (HEK-293 cells). The class given is cell-based. Particulars: for EC50: cAMP agonist, HEK, 96-well, read-out: hCB2 EC50 (cAMP ag, nM, HEK (96-well)). The method, then: as §1
T1 sequence (P34972 whole entry): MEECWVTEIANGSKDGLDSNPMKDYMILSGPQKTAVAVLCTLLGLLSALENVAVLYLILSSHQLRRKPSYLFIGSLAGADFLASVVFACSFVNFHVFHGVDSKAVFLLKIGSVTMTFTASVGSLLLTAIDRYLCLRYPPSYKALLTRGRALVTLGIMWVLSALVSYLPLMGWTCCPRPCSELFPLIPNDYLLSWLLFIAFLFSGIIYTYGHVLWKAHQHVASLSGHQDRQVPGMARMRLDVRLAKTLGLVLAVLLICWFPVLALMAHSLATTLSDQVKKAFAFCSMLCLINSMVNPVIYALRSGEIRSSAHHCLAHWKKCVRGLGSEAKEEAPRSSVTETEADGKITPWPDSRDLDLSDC
cAMP assays were performed in HEK-293 cells stably expressing human CB 1 or CB2 receptors. […] Cells suspensions were centrifuged and the cells were washed once with PBS, were centrifuged again, and the cells were resuspended in HBSS (Hank's Balanced Salt Solution, Cellgro, Cat #21-022-CV) solution containing 10 mM HEPES and 0.1% fatty acid free BSA (Sigma, Cat #A0281). Cell suspensions were prepared at 1,500,000 cells per mL. Stock solutions of test substances (10 mM) in DMSO were diluted to 1 mM using 30% DMSO as diluent. Test substances of solutions (1 mM) were further diluted down to 3× of final assay concentrations in the above HBSS buffer containing 0.1% BSA in the presence of 90 uM forskolin (Sigma Cat#F6886). To perform the assay, 20 μL of cell suspension (1,500,000 cells/mL) were added to each well in 96 well plate and treated with 10 μL test substance solution diluted as described above. Cells and compounds were incubated at 37° C. for 30 minutes. Cells were lysed and cAMP concentration was measured using DiscoveRx-XS+ cAMP assay kit (DiscoveRx Corporation Ltd., Fremont, Calif., USA, Cat #90-0075-03), following the manufacturer's protocol. GraphPad Prism software was used to calculate EC50 values using sigmoidal dose response curve fitting. The maximal amount of cAMP produced by forskolin was defined as 100%.

Experiment [3] deals with T1, hCB2. As to the kind of experiment: hCB2 radioligand binding assay ([3H]-CP 55,940 displacement). Particulars: hCB2 IC50 (CP displ, nM, HEK), HEK membranes. The method, then:
as §1
as §2, with “Cells were scraped into 20 mM HEPES, pH 7.4, 10 mM EDTA containing complete cocktail protease inhibitors (Roche, Catalog #11 697 498 001), and were homogenized by an electric-powered mechanical probe homogenizer (Omni GLH; probe G7-195S) for 40 seconds at 7000 rpm.” left out
A rapid filtration technique using Millipore FB filter plates (Catalog #MADVNOB) and filtration apparatus (Millipore system Catalog MAVM0960R) with vacuum aspiration was used to harvest and rinse labeled membranes (8 times with 0.2 mL of chilled binding buffer). […] Binding data were analyzed using GraphPad Prism (GraphPad Software, Inc. San Diego, Calif.).

Experiment [4] deals with T1, hCB2. In words: hCB2 GTPγS agonist assay (HEK-293 membranes). It is filed as biochemical. Particulars: for EC50: GTPγS agonist, HEK membranes, read-out: hCB2 EC50 (GTPyS ag, nM, HEK). The method, then:
as §1
as §2, with “Cells were scraped into 20 mM HEPES, pH 7.4, 10 mM EDTA containing complete cocktail protease inhibitors (Roche, Catalog #11 697 498 001), and were homogenized by an electric-powered mechanical probe homogenizer (Omni GLH; probe G7-195S) for 40 seconds at 7000 rpm.” left out
^35S GTPγS binding assays were performed by incubating recombinant cell membranes prepared above (5 μg) in the presence of scintillation proximity assay beads (SPA beads, Catalog #RPNQ0252 GE Healthcare, Buckinghamshire, England) in GTPγS binding buffer [50 mM HEPES (pH 7.4), 100 mM NaCl, 5 mM MgCl2, 0.001% saponin (Sigma catalog #S4521)] supplemented with 20 uM GDP (Sigma catalog #G7127) in the presence or absence of test compound. The reaction was carried out in 96-well microplates with 0.1 nM [^35S]GTPγS (specific activity=1250 Ci/mmol; Perkin Elmer catalog #NEG030X250UC) in a final volume of 100 μL. After a 90 min room temperature incubation, the reaction was analyzed using a scintillation counter (Perkin Elmer Microbeta instrument). Binding data were analyzed using GraphPad Prism.

Each structure is given as a SMILES string. pEC50: −log10 of the molar value.

Chain of hCB1 (P21554 whole entry): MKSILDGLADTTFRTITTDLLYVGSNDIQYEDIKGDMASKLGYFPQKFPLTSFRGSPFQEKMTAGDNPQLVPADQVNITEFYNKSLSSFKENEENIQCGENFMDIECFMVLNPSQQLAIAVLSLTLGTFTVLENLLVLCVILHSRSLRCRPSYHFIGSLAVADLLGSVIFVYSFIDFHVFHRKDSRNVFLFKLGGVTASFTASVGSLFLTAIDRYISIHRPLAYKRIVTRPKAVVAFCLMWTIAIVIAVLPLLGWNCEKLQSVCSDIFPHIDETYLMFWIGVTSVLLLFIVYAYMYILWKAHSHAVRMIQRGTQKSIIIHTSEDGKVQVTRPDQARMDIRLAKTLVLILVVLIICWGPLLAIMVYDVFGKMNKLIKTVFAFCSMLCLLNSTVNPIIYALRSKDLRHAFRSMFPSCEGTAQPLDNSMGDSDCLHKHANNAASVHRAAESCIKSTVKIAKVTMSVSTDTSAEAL

`CCn1c(C(=O)c2c(C)n(CCC(=O)O)c3ccccc23)cc2ccsc21` [Compound I-27, 3-(3-(6-ethyl-6H-thieno[2,3-b]pyrrole-5-carbonyl)-2-methyl-1H-indol-1-yl)propanoic acid]: the figures for the IC50 in experiment [1] and in experiment [3] were > 10000 nM and 100 to 1000 nM, respectively. For the same compound, in experiment [2], the EC50 lay within 100 to 1000 nM.
In the case of `CCCn1c(C)c(C(=O)c2cc3ccsc3n2CCC)c2c1CCC(C)(C)C2` [Compound I-35], the IC50 in experiment [1] was 100 to 1000 nM; in experiment [3], < 100 nM. For the same compound, the concentration giving a half-maximal response (EC50) in experiment [4] and in experiment [2] was < 100 nM throughout.
Turning to `CCn1c(C(=O)c2c[nH]c3ccccc23)cc2ccsc21` [Compound I-37], the values for the IC50 in experiment [1] and in experiment [3] were > 10000 nM and 100 to 1000 nM, respectively. Also, the concentration giving a half-maximal response (EC50) in experiment [4] was 100 to 1000 nM; in experiment [2] it was < 100 nM.
As for `CCCn1c(C(=O)c2c[nH]c3ncccc23)cc2ccsc21` [Compound I-43], the IC50 in experiment [1] is > 10000 nM; in experiment [3], 1000 to 10000 nM. Also, the EC50 in experiment [4] was in the range of 100 to 1000 nM.
For `CCCn1c(C)c(C(=O)c2cc3ccsc3s2)c2ccccc21` [Compound I-46], the IC50 is 1000 to 10000 nM in experiment [1] and 100 to 1000 nM in experiment [3]. Further, the pEC50 in experiment [4] and in experiment [2] was 6.00 to 7.00 throughout.
Turning to `CCCn1c(C)c(C(=O)c2cc3cc(Cl)sc3[nH]2)c2ccccc21` [Compound I-48], the IC50 was 1000 to 10000 nM in experiment [1] and 100 to 1000 nM in experiment [3]. Further, the negative-log EC50 (pEC50) in experiment [4] and in experiment [2] was 6.00 to 7.00 throughout.
For the compound `CCCn1c(C(=O)c2c(C)n(CC)c3ccccc23)cc2ccsc21` [Compound I-50], the IC50 in experiment [1] was 1000 to 10000 nM; in experiment [3] it was < 100 nM. The pEC50 in experiment [4] and in experiment [2] was > 7.00 throughout.
Regarding `CCCn1c(C)c(C(=O)c2cc3ccsc3n2CCC)c2cc(Cl)ccc21` [Compound I-52], the IC50 in experiment [1] fell in the range of 1000 to 10000 nM; in experiment [3] it was 100 to 1000 nM. For the same compound, the pEC50 in experiment [4] and in experiment [2] was 6.00 to 7.00 throughout.
Take `CCCn1c(C)c(C(=O)c2cc3ccsc3n2CCC)c2cc(OC)ccc21` [Compound I-61]: the concentration for half-maximal inhibition (IC50) in experiment [1] was 100 to 1000 nM; in experiment [3], < 100 nM. The compound further had a pEC50 in experiment [2] of 6.00 to 7.00.
For `CCCn1c(C)c(C(=O)c2cc3cc(C)n(CCC)c3s2)c2ccccc21` [Compound I-63], in experiment [3], the 50% inhibitory concentration (IC50) lay in the range of 100 to 1000 nM.
As for `CCCn1c(C)c(C(=O)c2cc3occc3[nH]2)c2ccccc21` [Compound I-71], the half-maximal inhibitory concentration (IC50) was > 10000 nM in experiment [1] and 1000 to 10000 nM in experiment [3].
The corresponding values for `CCCn1c(C)c(C(=O)c2cc3cc(C)[nH]c3s2)c2ccccc21` [Compound I-75] are > 10000 nM and 1000 to 10000 nM.

The record behind these values is patent US20130178453A1, “Cannabinoid Agonists” (priority 2010, published 2013).
